Laboratory results published in article PMC11460631, “Inhibition of transient receptor potential vanilloid 3 channels by antimalarial hydroxychloroquine alleviates TRPV3-dependent dermatitis” (The Journal of Biological Chemistry, 2024).
Where a chain is given by its changes, count along the chain named.

How the values were obtained:
[1] = molecular target: T1, TRPV3 Y594 alanine mutation (Homo sapiens, UniProt Q8NET8, Y594A); experiment: Whole-cell recording of TRPV3 Y594 alanine mutant; format: cell-based; conditions: 1 mM 2-APB, ± 80 mV
T1 construct: YFP or GFP; expressed in transfected cells; host or cells: HEK293T
T1 sequence (Q8NET8 1-790 Y594A): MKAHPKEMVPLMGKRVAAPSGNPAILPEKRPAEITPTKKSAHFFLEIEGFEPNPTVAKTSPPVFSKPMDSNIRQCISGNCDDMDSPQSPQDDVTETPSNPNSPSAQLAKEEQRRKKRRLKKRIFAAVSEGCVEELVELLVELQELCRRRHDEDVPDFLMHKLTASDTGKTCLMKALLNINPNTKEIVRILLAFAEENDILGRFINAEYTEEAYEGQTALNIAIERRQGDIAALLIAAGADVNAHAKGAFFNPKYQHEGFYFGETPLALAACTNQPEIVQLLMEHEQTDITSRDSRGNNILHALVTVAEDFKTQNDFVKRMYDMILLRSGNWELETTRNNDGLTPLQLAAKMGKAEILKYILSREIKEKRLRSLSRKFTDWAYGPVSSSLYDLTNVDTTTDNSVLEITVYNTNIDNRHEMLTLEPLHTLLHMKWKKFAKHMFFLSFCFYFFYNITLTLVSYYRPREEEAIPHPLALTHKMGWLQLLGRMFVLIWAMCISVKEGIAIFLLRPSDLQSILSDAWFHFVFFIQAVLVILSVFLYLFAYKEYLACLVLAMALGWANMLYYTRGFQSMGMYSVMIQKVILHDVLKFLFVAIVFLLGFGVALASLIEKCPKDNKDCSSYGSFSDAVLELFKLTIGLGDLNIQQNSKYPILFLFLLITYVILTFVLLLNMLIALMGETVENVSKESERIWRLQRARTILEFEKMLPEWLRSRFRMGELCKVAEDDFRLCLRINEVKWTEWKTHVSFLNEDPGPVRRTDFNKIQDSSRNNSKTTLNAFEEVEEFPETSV
Source text: (§1) As we mentioned above, HCQ may act as a pore blocker of TRPV3. To probe the binding configuration of HCQ to TRPV3, we carried out molecular docking using Rosetta suite (https://rosettacommons.org) ([21]) and validated the docking models with point mutations in TRPV3 (Fig. 4A). […] Furthermore, when we introduced L670A to L591A mutant, we also observed a left shift on the concentration–response curve on this double mutant as compared to L591A mutant (Fig. 4H).
(§2) Figure 4 Residues of the pore domain are critical for HCQ inhibition on TRPV3.A, left panel, docking model of HCQ to the pore domain of TRPV3 structure (6uw4). Right panels, top view and side view of the HCQ-binding pocket. B-J, representative whole-cell recording of TRPV3 and mutants in response to 1 mM 2-APB, the mixture of 1 mM 2-APB and concentration gradients of HCQ with the holding potential of ± 80 mV. K, concentration–response curves of HCQ in WT TRPV3 and mutants (n = 3–5 cells). L, quantification of the inhibitory ratio of HCQ (100 μM) on WT, L591A, and N671Q. […]
(§3) All data from whole-cell recordings were analyzed in Igor Pro (WaveMetrics). IC50 values were determined by fitting the Hill equation to concentration-response relationships. […]

[2] = molecular target: T2, TRPV3 L670 alanine mutation (Homo sapiens, UniProt Q8NET8, L670A); experiment: Whole-cell recording of TRPV3 L670 alanine mutant; format: cell-based; conditions: 1 mM 2-APB, ± 80 mV
T2 construct: YFP or GFP; expressed in transfected cells; host or cells: HEK293T
T2 sequence (Q8NET8 1-790 L670A): T1 sequence (Q8NET8 1-790 Y594A) with A594Y, L670A
Source text: as §1, §2, §3

CCN(CCO)CCCC(C)Nc1ccnc2cc(Cl)ccc12 (centres unmarked) [HCQ, hydroxychloroquine]
IC50 [1]: 1570 ± 80 nM
IC50 [2]: 170 ± 40 nM
